Test results taken from patent US20040249122A1, “Cationic, amphipathic beta-sheet peptides and uses thereof” (priority 2003, published 2004).
Values after ≈ are worked out from the molar mass of the structure shown. Where a SMILES comes first, the peptide text is derived from it. Where no end group is shown, it is not given here.

Experiments:
[1] = test system: Staphylococcus aureus (ATCC 29213); format: cell-based; details: ATCC 29213
Procedure: (§1) Antimicrobial and Hemolytic Assays. Antimicrobial susceptibility testing against Staphylococcus aureus (ATCC 29213), Escherichia coli (ATCC 25922), and Pseudomonas aeruginosa (ATCC 27853) was performed using a modification of the National Committee for Clinical Laboratory Standards microdilution broth assay (22). Mueller-Hinton broth (BBL) was used for diluting the peptide stock solution and for diluting the bacterial inoculum. The inoculum was prepared from mid-logarithmic phase cultures. […] The final concentration of peptide solution ranged-from 0.25 to 256 μg/mL in two-fold dilutions. The final concentration of bacteria in the wells was 5×10^5 CFU/mL. Peptides were tested in duplicate. In addition to the test peptide, three standard peptides and a non-treated growth control were included to validate the assay. The microtiter plates were incubated overnight at 37° C. and the absorbance was measured at 600 nm. […] After incubation at 37° C. for 30 min, the suspension was centrifuged at 10,000×g for 10 min and the absorbance at 400 nm was measured.

[2] = test system: Escherichia coli (ATCC 25922); format: cell-based; details: ATCC 25922
Procedure: as §1

[3] = test system: Pseudomonas aeruginosa (ATCC 27853); format: cell-based; details: ATCC 27853
Procedure: as §1

[4] = test system: E. coli, S. aureus, and P. aeruginosa; format: cell-based
Procedure: Antimicrobial and Hemolytic Assays. Antimicrobial susceptibility testing against Staphylococcus aureus (ATCC 29213), Escherichia coli (ATCC 25922), and Pseudomonas aeruginosa (ATCC 27853) was performed using a modification of the National Committee for Clinical Laboratory Standards microdilution broth assay (22). Mueller-Hinton broth (BBL) was used for diluting the peptide stock solution and for diluting the bacterial inoculum. The inoculum was prepared from mid-logarithmic phase cultures. Microtiter plate wells received aliquots-of 100 μL each of the inoculum and peptide dilution. The final concentration of peptide solution ranged-from 0.25 to 256 μg/mL in two-fold dilutions. The final concentration of bacteria in the wells was 5×10^5 CFU/mL. Peptides were tested in duplicate. In addition to the test peptide, three standard peptides and a non-treated growth control were included to validate the assay. The microtiter plates were incubated overnight at 37° C. and the absorbance was measured at 600 nm. […] Hemolysis at peptide concentrations of 500 μg/mL was determined using a 5% suspension of freshly drawn human erythrocytes, which had been washed twice in phosphate buffered saline. After incubation at 37° C. for 30 min, the suspension was centrifuged at 10,000×g for 10 min and the absorbance at 400 nm was measured. Complete hemolysis was determined by adding 0.2% Triton X-100 in place of the peptide.

[5] = Peptide-induced leakage from calcein-loaded LUV
Procedure: Peptide-Induced Leakage from Calcein-Loaded LUV. The ability of the peptides to release calcein (MW 623) from LUV of varying lipid composition was compared. LUV were prepared as above, except that-the buffer consisted of 50 mM HEPES, 100 mM NaCl, 0.3 mM EDTA, 80 mM calcein, pH 7.4. Calcein-loaded vesicles were separated from free calcein by size-exclusion chromatography using a Sephadex G-50 column and calcein-free buffer. Calcein leakage was monitored using a Perkin-Elmer LS-500 luminescence spectrometer by measuring the time-dependent increase in fluorescence of calcein (excitation=490 nm, emission=520 nm). LUV containing 8 nmoles of lipid were added to 1.5 mL of buffer in a stirred cuvet at 25° C. An aliquot of peptide was added to achieve the desired lipid-to-peptide ratio (256 to 8). Complete leakage was determined by the addition of 20 μL of 10% Triton X-100. Each value represents at least nine different measurements using at least three different LUV preparations.

With `CC(C)C[C@H](NC(=O)CNC(=O)[C@H](C)NC(=O)[C@H](CC(C)C)NC(=O)[C@H](CCCCN)NC(=O)[C@H](CCCCN)NC(=O)[C@H](C)NC(=O)[C@H](CC(C)C)NC(=O)CNC(=O)[C@H](C)NC(=O)[C@H](Cc1c[nH]c2ccccc12)NC(=O)[C@H](CCCCN)NC(=O)[C@H](CCCCN)NC(=O)[C@H](C)NC(=O)[C@H](CC(C)C)NC(=O)CNC(=O)[C@H](C)NC(=O)[C@H](CC(C)C)NC(=O)[C@H](CCCCN)NC(=O)[C@@H](N)CCCCN)C(=O)N[C@@H](C)C(N)=O` [1,2-Hept, KKLAGLAKKWAGLAKKLAGLA-NH2] (H-KKLAGLAKKWAGLAKKLAGLA-NH2; N-terminus assumed) the “MIC Staph. aureus” value [1] was 16 µg/mL (≈ 7.49 µM), the “MIC E. coli” value [2] was 8 µg/mL (≈ 3.75 µM) and the “MIC Pseud. aerug” value [3] was 16 µg/mL (≈ 7.49 µM). The “antimicrobial activity (in words)” value [4] was “relatively low MIC values”.
With `CC(C)C[C@H](NC(=O)CNC(=O)[C@H](C)NC(=O)[C@H](CCCCN)NC(=O)[C@H](CC(C)C)NC(=O)[C@H](CCCCN)NC(=O)[C@H](C)NC(=O)[C@H](CC(C)C)NC(=O)CNC(=O)[C@H](C)NC(=O)[C@H](CCCCN)NC(=O)[C@H](Cc1c[nH]c2ccccc12)NC(=O)[C@H](CCCCN)NC(=O)[C@H](C)NC(=O)[C@H](CC(C)C)NC(=O)CNC(=O)[C@H](C)NC(=O)[C@H](CCCCN)NC(=O)[C@H](CC(C)C)NC(=O)[C@@H](N)CCCCN)C(=O)N[C@@H](C)C(N)=O` [1,3-Hept, KLKAGLAKWKAGLAKLKAGLA-NH2] (H-KLKAGLAKWKAGLAKLKAGLA-NH2; N-terminus assumed) the “MIC Staph. aureus” value [1] was 256 µg/mL (≈ 120 µM), the “MIC E. coli” value [2] was 32 µg/mL (≈ 15 µM) and the “MIC Pseud. aerug” value [3] was >256 µg/mL. For the same compound, the “antimicrobial activity (in words)” value [4] was “slightly active”.
In the case of `CC[C@H](C)[C@H](NC(=O)[C@H](C)NC(=O)CNC(=O)[C@H](CCCCN)NC(=O)[C@@H](NC(=O)[C@H](CCCCN)NC(=O)[C@@H](NC(=O)[C@H](C)NC(=O)CNC(=O)[C@H](CCCCN)NC(=O)[C@H](Cc1c[nH]c2ccccc12)NC(=O)[C@H](CCCCN)NC(=O)[C@@H](NC(=O)[C@H](C)NC(=O)CNC(=O)[C@H](CCCCN)NC(=O)[C@@H](NC(=O)[C@@H](N)CCCCN)[C@@H](C)CC)[C@@H](C)CC)[C@@H](C)CC)[C@@H](C)CC)C(N)=O` [1,3-Hex, K I K G A I K W K G A I K I K G A I-NH2] (H-KIKGAIKWKGAIKIKGAI-NH2; N-terminus assumed), the “MIC Staph. aureus” value [1] was 32 µg/mL (≈ 16.6 µM), the “MIC E. coli” value [2] was 8 µg/mL (≈ 4.16 µM) and the “MIC Pseud. aerug” value [3] was 16 µg/mL (≈ 8.32 µM). For the same compound, the “antimicrobial activity (in words)” value [4] was “appreciable antimicrobial activity”.
For `CC[C@H](C)[C@H](NC(=O)[C@H](CCCCN)NC(=O)[C@H](C)NC(=O)CNC(=O)[C@@H](NC(=O)[C@H](CCCCN)NC(=O)[C@@H](NC(=O)[C@H](CCCCN)NC(=O)[C@H](C)NC(=O)CNC(=O)[C@H](Cc1c[nH]c2ccccc12)NC(=O)[C@H](CCCCN)NC(=O)[C@@H](NC(=O)[C@H](CCCCN)NC(=O)[C@H](C)NC(=O)CNC(=O)[C@@H](NC(=O)[C@@H](N)CCCCN)[C@@H](C)CC)[C@@H](C)CC)[C@@H](C)CC)[C@@H](C)CC)C(N)=O` [1,5-Hex, K I G A K I K W G A K I K I G A K I-NH2] (H-KIGAKIKWGAKIKIGAKI-NH2; N-terminus assumed), the “antimicrobial activity (in words)” value [4] was “appreciable antimicrobial activity”.
With “K I G A K S K H G A K I K I G A K I-NH2 (KIGAKSKHGAKIKIGAKI-NH2) [SH-KIGAKI]” the “calcein leakage from LUV (in words)” value ([5]; POPC (PC) LUV) was “low lytic activity”, the “calcein leakage from LUV (in words)” value ([5]; POPC/POPG LUV, all ratios (1:1 to 4:1)) was “no ability to induce leakage” and the “calcein leakage from LUV (in words)” value ([5]; any LUVs containing PE/PG) was “no ability to induce leakage”.
